Laboratory results from patent US12594335B2, “Platinum-based drug-/photosensitizer-loaded protein nanoparticle, and preparation method therefor and application thereof” (SOOCHOW UNIVERSITY, priority 2020, dated 2026).

Experiments:
[1] = Serum biochemical indexes of liver and kidney functions; format: in vivo, Balb/c mice; conditions: 5 mg/kg Pt i.v. every other day, 3 times; serum on day 7, 14, 21, 28
From the text: Inspection of biochemical indexes after action of nanoparticles: In order to determine the toxicity of drugs during metabolism in vivo, biochemical indexes of liver and kidney functions were investigated. […]

[2] = Photostability under 660 nm laser irradiation; format: physicochemical
Description: (2) Photostability of nanoparticles: taking 0.1 mL of a nanoparticle solution with the concentration of Ce6 at 20 μmol/L and 0.1 mL of a free Ce6 solution with a concentration of 20 μmol/L, respectively, and adding them respectively to 2.9 mL of pure water, a phosphate buffer with pH 5.5, and a phosphate buffer with pH 7.4; and using a 660 nm laser with the power of 0.15 W/cm^2 to irradiate the solutions once every 30 s, and immediately measuring the ultraviolet absorption value with a UV-vis spectrophotometer until full 5 min of irradiation.

[3] = In-vitro chemical stability (UV absorbance of Ce6 within 72 h); format: physicochemical; conditions: water, phosphate buffer pH 5.5, pH 7.4, culture medium with 10% fetal bovine serum
Description: In-vitro stability of nanoparticles: (1) Chemical stability of nanoparticles: taking 0.1 mL of a nanoparticle solution with the concentration of Ce6 at 20 μmol/L and 0.1 mL of a free Ce6 solution with a concentration of 20 μmol/L, respectively, and adding them respectively to 2.9 mL of pure water, a phosphate buffer with pH 5.5, a phosphate buffer with pH 7.4, and a RPMI 1640 culture medium containing 10% fetal bovine serum; and storing at room temperature and away from light, with 3 copies for each environment. A UV-vis spectrophotometer was used to measure the absorbance change of Ce6 within 72 h.

In the case of N.N.[Cl][Pt][Cl] [free CDDP, cis-dichlorodiammine platinum (II)], the “kidney indexes Urea and Crea” value [1] is reported as “increased rapidly” and the “liver indexes (ALT, AST, ALP)” value [1] is reported as “changed greatly”.
With chlorin e6 [free Ce6] the photostability ([2]; 0.15 W/cm^2, up to 5 min, deionized water, pH 5.5 and pH 7.4 buffers) was “photobleached quickly”, the “time to completed photobleaching” value ([2]; acidic environment, 0.15 W/cm^2) was no more than 120 s and the “decrease of UV absorption with time” value [3] was 20%-40%.
